Laboratory results: patent US20090191173A1, “Induction Of Neurogenesis And Stem Cell Therapy In Combination With Copolymer 1” (priority 2004, published 2009)
Like-named read-outs stand apart in the source and are kept apart here.

Test system: spinal cord injury (SCI) in C57B1/6J mice
Assay type: in vivo, mouse

MEVGWYRSPFDRVVHLYRNGK [45D peptide, altered MOG 35-55 peptide, serine to aspartic acid substitution]
Basso motor score (BMS), mean±SEM (immunization in CFA 2.5% M. tuberculosis, without aNPC transplantation (FIG. 7C)): 2.57±0.24
Basso motor score (BMS), mean±SEM (vaccination in CFA 2.5% M. tuberculosis 1 week before SCI, aNPCs i.c.v. 1 week after SCI (FIG. 7C)): 4.11±0.27

MEVGWYRSPFSRVVHLYRNGK [MOG/CFA, MOG peptide 35-55 emulsified in CFA containing 2.5% Mycobacterium tuberculosis]
Basso motor score (BMS) (MOG 35-55 in CFA 2.5% M. tuberculosis one week prior to SCI, no aNPCs (FIGS. 7G, 7H)): 0.35±0.2

MEVGWYRSPFSRVVHLYRNGK [MOG/CFA/PBS, pMOG 35-55 emulsified in CFA, PBS i.c.v. instead of cells]
Basso motor score (BMS), mean±SEM (immunization immediately after SCI, CFA containing 0.5% Mycobacterium tuberculosis, i.c.v. injection 1 week later (FIG. 7A)): 2.71±0.5

B1: OVA/CFA/PBS: nonself protein ovalbumin emulsified in CFA, PBS i.c.v. (protein, UniProt P01012 2-386, looked up)
Ovalbumin: GSIGAASMEFCFDVFKELKVHHANENIFYCPIAIMSALAMVYLGAKDSTRTQINKVVRFDKLPGFGDSIEAQCGTSVNVHSSLRDILNQITKPNDVYSFSLASRLYAEERYPILPEYLQCVKELYRGGLEPINFQTAADQARELINSWVESQTNGIIRNVLQPSSVDSQTAMVLVNAIVFKGLWEKAFKDEDTQAMPFRVTEQESKPVQMMYQIGLFRVASMASEKMKILELPFASGTMSMLVLLPDEVSGLEQLESIINFEKLTEWTSSNVMEERKIKVYLPRMKMEEKYNLTSVLMAMGITDVFSSSANLSGISSAESLKISQAVHAAHAEINEAGREVVGSAEAGVDAASVSEEFRADHPFLFCIKHIATNAVLFFGRCVSP
modifications: emulsified in CFA
Basso motor score (BMS) (OVA in CFA 2.5% M. tuberculosis, i.c.v. injection 1 week later (FIG. 7F)): 2.2±0.68
